Measured values reported in patent publication US10172358B2, “Thiopicolinamide compounds with fungicidal activity” (Dow AgroSciences LLC, priority 2016, dated 2019).
Like-named read-outs stand apart in the source and are kept apart here.

What was measured:
Puccinia triticina = assay: Fungicidal activity: wheat brown rust (PUCCRT), disease control on wheat seedlings; type: in vivo, Puccinia triticina on wheat plants (variety Yuma); details: for pest or weed control at 100 ppm: high volume application; for pest or weed control at 121.5 g/ha: low volume application, 121.5 g/H
Method: Technical grades of materials were dissolved in acetone, which were then mixed with nine volumes of water (H2O) containing 110 ppm Triton X-100. The fungicide solutions were applied onto wheat seedlings using an automated booth sprayer to run-off. All sprayed plants were allowed to air dry prior to further handling. All fungicides were evaluated using the aforementioned method for their activity vs. all target diseases, unless stated otherwise. Wheat leaf blotch and brown rust activity were also evaluated using track spray applications, in which case the fungicides were formulated as EC formulations, containing 0.1% Trycol 5941 in the spray solutions. Evaluation of Fungicidal Activity: Wheat Brown Rust (Puccinia triticina; Synonym: Puccinia recondita f. Sp. Tritici; Bayer Code PUCCRT) Wheat plants (variety Yuma) were grown from seed in a greenhouse in 50% mineral soil/50% soil-less Metro mix until the first leaf was fully emerged, with 7-10 seedlings per pot. These plants were inoculated with an aqueous spore suspension of Puccinia triticina either prior to or after fungicide treatments. After inoculation the plants were kept in a dark dew room at 22° C. with 100% relative humidity overnight to permit spores to germinate and infect the leaf. The plants were then transferred to a greenhouse set at 24° C. for disease to develop. Fungicide formulation, application and disease assessment followed the procedures as described in the Example A. The results of the evalution are shown below in Table 4.

Zymoseptoria tritici = assay: Fungicidal activity: leaf blotch of wheat (SEPTTR), disease control on wheat seedlings; type: in vivo, Zymoseptoria tritici on wheat plants (variety Yuma); details: for pest or weed control at 100 ppm: high volume application; for pest or weed control at 121.5 g/ha: low volume application, 121.5 g/H
Method: Evaluation of Fungicidal Activity: Leaf Blotch of Wheat (Zymoseptoria Tritici; Bayer Code […]) Technical grades of materials were dissolved in acetone, which were then mixed with nine volumes of water (H2O) containing 110 ppm Triton X-100. The fungicide solutions were applied onto wheat seedlings using an automated booth sprayer to run-off. All sprayed plants were allowed to air dry prior to further handling. All fungicides were evaluated using the aforementioned method for their activity vs. all target diseases, unless stated otherwise. Wheat leaf blotch and brown rust activity were also evaluated using track spray applications, in which case the fungicides were formulated as EC formulations, containing 0.1% Trycol 5941 in the spray solutions. Wheat plants (variety Yuma) were grown from seed in a greenhouse in 50% mineral soil/50% soil-less Metro mix until the first leaf was fully emerged, with 7-10 seedlings per pot. These plants were inoculated with an aqueous spore suspension of Zymoseptoria tritici either prior to or after fungicide treatments. After inoculation the plants were kept in 100% relative humidity (one day in a dark dew chamber followed by two to three days in a lighted dew chamber at 20° C.) to permit spores to germinate and infect the leaf. The plants were then transferred to a greenhouse set at 20° C. for disease to develop. When disease symptoms were fully expressed on the 1st leaves of untreated plants, infection levels were assessed on a scale of 0 to 100 percent disease severity. Percent disease control was calculated using the ratio of disease severity on treated plants relative to untreated plants.

[1] = 24 h, 1 day protectant, read-out: PUCCRT 1DP disease control, HV activity at 100 ppm
[2] = 72 h, 3 day curative, read-out: PUCCRT 3DC disease control, HV activity at 100 ppm
[3] = 24 h, 1 day protectant, read-out: SEPTTR 1DP disease control, HV activity at 100 ppm
[4] = 72 h, 3 day curative, read-out: SEPTTR 3DC disease control, HV activity at 100 ppm
[5] = 24 h, 1 day protectant, read-out: PUCCRT 1DP disease control, LV activity at 121.5 g/H
[6] = 72 h, 3 day curative, read-out: PUCCRT 3DC disease control, LV activity at 121.5 g/H
[7] = 24 h, 1 day protectant, read-out: SEPTTR 1DP disease control, LV activity at 121.5 g/H
[8] = 72 h, 3 day curative, read-out: SEPTTR 3DC disease control, LV activity at 121.5 g/H

SMILES	pest or weed control at 100 ppm (Puccinia triticina; [1])	pest or weed control at 100 ppm (Puccinia triticina; [2])	pest or weed control at 100 ppm (Zymoseptoria tritici; [3])	pest or weed control at 100 ppm (Zymoseptoria tritici; [4])	pest or weed control at 121.5 g/ha (Puccinia triticina; [5])	pest or weed control at 121.5 g/ha (Puccinia triticina; [6])	pest or weed control at 121.5 g/ha (Zymoseptoria tritici; [7])	pest or weed control at 121.5 g/ha (Zymoseptoria tritici; [8])
COc1ccnc(C(=S)N[C@@H](C)C(=O)O[C@H](C(C)C)[C@H](C)Oc2ccc(C)cc2)c1O [Compound 1]	> 80%	> 80%	≤ 80%	≤ 80%	–	–	–	–
COc1ccnc(C(=S)N[C@@H](C)C(=O)O[C@@H](C)C(c2ccc(Cl)cc2)c2ccc(Cl)cc2)c1O [Compound 2]	> 80%	–	> 80%	> 80%	–	–	–	–
COc1ccnc(C(=S)N[C@@H](C)C(=O)O[C@@H](C)C(c2ccc(C)cc2C)c2ccc(C)cc2C)c1O [Compound 3]	> 80%	–	> 80%	> 80%	–	–	–	–
COc1ccnc(C(=S)N[C@@H](C)C(=O)O[C@@H](C)[C@@H](c2ccccc2)c2ccc(F)cc2)c1O [Compound 4]	> 80%	–	> 80%	> 80%	–	–	–	–
COc1ccc(C(c2ccc(OC)cc2F)[C@H](C)OC(=O)[C@H](C)NC(=S)c2nccc(OC)c2O)c(F)c1 [Compound 5]	> 80%	–	> 80%	> 80%	–	–	–	–
COc1ccnc(C(=S)N[C@@H](C)C(=O)O[C@@H](C)[C@@H](c2ccc(C)cc2)c2ccc(F)cc2C)c1O [Compound 6]	> 80%	≤ 80%	> 80%	> 80%	–	–	–	–
COc1ccnc(C(=S)N[C@@H](C)C(=O)O[C@H](C)C(c2ccc(F)cc2)c2ccc(F)cc2)c1O [Compound 7]	≤ 80%	–	≤ 80%	–	–	–	–	–
CCCCC[C@@H](OC(=O)[C@H](C)NC(=S)c1nccc(OC)c1O)[C@H](C)Oc1ccccc1 [Compound 8]	> 80%	–	≤ 80%	≤ 80%	–	–	–	–
COc1ccnc(C(=S)N[C@@H](C)C(=O)O[C@@H](C)[C@H](Oc2ccc(Cl)cc2Cl)c2ccccc2)c1O [Compound 9]	> 80%	–	> 80%	> 80%	–	–	–	–
CCCCC[C@H](OC(=O)[C@H](C)NC(=S)c1nccc(OC)c1O)[C@@H](C)Oc1ccccc1 [Compound 10]	≤ 80%	–	–	–	–	–	–	–
COc1ccc(O[C@@H](C)[C@H](OC(=O)[C@H](C)NC(=S)c2nccc(OC)c2O)C(C)C)cc1 [Compound 11]	> 80%	> 80%	> 80%	≤ 80%	–	–	–	–
COc1cc(F)ccc1[C@H](c1ccccc1)[C@H](C)OC(=O)[C@H](C)NC(=S)c1nccc(OC)c1O [Compound 12]	> 80%	≤ 80%	> 80%	≤ 80%	–	–	–	–
COc1ccccc1C(c1ccccc1OC)[C@H](C)OC(=O)[C@H](C)NC(=S)c1nccc(OC)c1O [Compound 13]	> 80%	≤ 80%	> 80%	> 80%	–	–	–	–
COc1cc(Cl)ccc1C(c1ccc(Cl)cc1OC)[C@H](C)OC(=O)[C@H](C)NC(=S)c1nccc(OC)c1O [Compound 14]	> 80%	≤ 80%	> 80%	> 80%	–	–	–	–
COc1ccnc(C(=S)N[C@H](C)C(=O)O[C@@H](C)C(c2ccc(F)cc2)c2ccc(F)cc2)c1O [Compound 15]	–	–	> 80%	–	–	–	–	–
C=CC[C@@H](Oc1ccccc1)[C@H](C)OC(=O)[C@H](C)NC(=S)c1nccc(OC)c1O [Compound 16]	> 80%	> 80%	> 80%	≤ 80%	–	–	–	–

SMILES	pest or weed control at 100 ppm (Puccinia triticina; [1])	pest or weed control at 100 ppm (Puccinia triticina; [2])	pest or weed control at 100 ppm (Zymoseptoria tritici; [3])	pest or weed control at 100 ppm (Zymoseptoria tritici; [4])	pest or weed control at 121.5 g/ha (Puccinia triticina; [5])	pest or weed control at 121.5 g/ha (Puccinia triticina; [6])	pest or weed control at 121.5 g/ha (Zymoseptoria tritici; [7])	pest or weed control at 121.5 g/ha (Zymoseptoria tritici; [8])
COc1ccnc(C(=S)N[C@@H](C)C(=O)O[C@@H](C)[C@H](Oc2ccc(Cl)cc2)C(C)C)c1O [Compound 17]	> 80%	–	≤ 80%	–	–	–	–	–
COc1cc(F)ccc1[C@H](c1ccc(C)cc1)[C@H](C)OC(=O)[C@H](C)NC(=S)c1nccc(OC)c1O [Compound 18]	> 80%	> 80%	> 80%	> 80%	–	–	–	–
COc1ccnc(C(=S)N[C@@H](C)C(=O)O[C@H](C(C)C)[C@H](C)Oc2ccccc2)c1O [Compound 19]	> 80%	> 80%	> 80%	–	–	–	–	–
COc1ccnc(C(=S)N[C@@H](C)C(=O)O[C@@H](C)C(c2ccc(C)cc2)c2ccc(C)cc2)c1O [Compound 20]	> 80%	≤ 80%	> 80%	> 80%	–	–	–	–
COc1ccnc(C(=S)N[C@@H](C)C(=O)O[C@H](CC(C)C)[C@H](C)Oc2ccccc2)c1O [Compound 21]	–	–	≤ 80%	≤ 80%	–	–	–	–
COc1ccnc(C(=S)N[C@@H](C)C(=O)O[C@@H](C)[C@H](Oc2ccccc2Cl)c2ccccc2)c1O [Compound 22, (1R,2S)-1-(2-chlorophenoxy)-1-phenylpropan-2-yl (3-hydroxy-4-methoxypyridine-2-carbonothioyl)-L-alaninate]	> 80%	≤ 80%	> 80%	≤ 80%	–	–	–	–
CCC[C@H](OC(=O)[C@H](C)NC(=S)c1nccc(OC)c1O)[C@@H](C)Oc1ccccc1 [Compound 34]	–	–	≤ 80%	–	–	–	–	–
COc1ccnc(C(=S)N[C@@H](C)C(=O)O[C@@H](C)C(c2ccc(F)cc2)c2ccc(F)cc2)c1O [Compound 39]	≤ 80%	≤ 80%	> 80%	> 80%	–	–	–	–
CCCCC[C@@H](OC(=O)[C@H](C)NC(=S)c1nccc(OC)c1CC(C)=O)[C@H](C)Oc1ccccc1 [Compound 41]	–	–	–	–	> 80%	> 80%	> 80%	> 80%
CCCCC[C@H](OC(=O)[C@H](C)NC(=S)c1nccc(OC)c1OC(C)=O)[C@@H](C)Oc1ccccc1 [Compound 42]	–	–	–	–	≤ 80%	≤ 80%	≤ 80%	–
COc1ccnc(C(=S)N[C@@H](C)C(=O)O[C@@H](C)[C@H](Oc2ccc(Cl)cc2)C(C)C)c1OC(C)=O [Compound 43]	–	–	–	–	> 80%	> 80%	> 80%	≤ 80%
COc1cc(F)ccc1[C@H](c1ccccc1)[C@H](C)OC(=O)[C@H](C)NC(=S)c1nccc(OC)c1OC(C)=O [Compound 44]	–	–	–	–	> 80%	≤ 80%	> 80%	> 80%
COc1cc(F)ccc1[C@H](c1ccc(C)cc1)[C@H](C)OC(=O)[C@H](C)NC(=S)c1nccc(OC)c1OC(C)=O [Compound 45]	–	–	–	–	> 80%	> 80%	> 80%	> 80%
COc1ccnc(C(=S)N[C@@H](C)C(=O)O[C@@H](C)[C@@H](c2ccc(C)cc2)c2ccc(F)cc2C)c1OC(C)=O [Compound 46]	–	–	–	–	> 80%	> 80%	> 80%	> 80%
COc1ccnc(C(=S)N[C@@H](C)C(=O)O[C@H](C)C(c2ccc(F)cc2)c2ccc(F)cc2)c1OC(C)=O [Compound 55]	–	–	–	–	–	–	≤ 80%	–
